Test results from ChEMBL document CHEMBL1153512, “Anti-HBV and cytotoxic activities of pyranocoumarin derivatives” (Bioorg Med Chem, 2009).
Values after ≈ are worked out from the molar mass of the structure shown.

Tests used:
Hepatitis B virus [1] = experiment: Antiviral activity against Hepatitis B virus infected in human […] cells assessed as suppression of viral surface antigen production upto 15 uM after 48 hrs by enzyme immunoassay; type: functional, organism-based
KB = experiment: Cytotoxicity against human KB cells after 3 days by sulforhodamine B assay; type: functional, cell-based; details: 72 h
[2] = Cytotoxicity against human KBVIN cells after 3 days by sulforhodamine B assay; type: functional, cell-based; details: 72 h
MCF7 = experiment: Cytotoxicity against human MCF7 cells after 3 days by sulforhodamine B assay; type: functional, cell-based; details: MCF7, 72 h
A549 = experiment: Cytotoxicity against human A549 cells after 3 days by sulforhodamine B assay; type: functional, cell-based; details: A549, 72 h
Hepatitis B virus [3] = experiment: Antiviral activity against Hepatitis B virus infected in human […] cells assessed as suppression of viral surface antigen production after 48 hrs by enzyme immunoassay; type: functional, organism-based

EC50 (Hepatitis B virus [1]) | EC50 (Hepatitis B virus [3]) [µM] | SMILES | EC50 (KB) [µg/mL] | EC50 [2] [µg/mL] | EC50 (MCF7) [µg/mL] | EC50 (A549) [µg/mL]
Not Active |  | COc1c2c(cc3oc(=O)ccc13)OC(C)(C)C1OC21 (stereo not given) |  |  |  | 
Not Active |  | CCC(C)(C)c1cc2c(O)c3c(c(C(C)(C)CC)c2oc1=O)OC(C)(C)CC3 | 8.21 (≈ 21.2 µM) | 7.73 (≈ 20 µM) | 17.7 (≈ 45.9 µM) | 12.2 (≈ 31.6 µM)
 | 1.14 | CCC(C)(C)c1c2c(c(O)c3ccc(=O)oc13)C(=O)CC(C)(C)O2 | 19.5 (≈ 59 µM) | 2.87 (≈ 8.69 µM) | > 20 | 19.7 (≈ 59.7 µM)
 | 6.38 | C=CC(C)(C)c1c2c(c(O)c3ccc(=O)oc13)C=CC(C)(C)O2 [NORDENTATIN] | 9.63 (≈ 30.8 µM) | 9.96 (≈ 31.9 µM) | 17.3 (≈ 55.4 µM) | 8.7 (≈ 27.9 µM)
Not Active |  | COc1c2c(cc3oc(=O)ccc13)OC(C)(C)C=C2 [XANTHOXYLETIN] |  |  |  | 
 | 4.56 | C=CC(C)(C)c1cc2c(OC)c3c(c(C(C)(C)C=C)c2oc1=O)OC(C)(C)C1OC31 (stereo not given) | 6.5 (≈ 15.8 µM) | 6.12 (≈ 14.9 µM) | 11.4 (≈ 27.8 µM) | 11.8 (≈ 28.7 µM)
Not Active |  | COc1c2c(c(C(C)(C)C3CO3)c3oc(=O)c(C(C)(C)C4CO4)cc13)OC(C)(C)C1OC21 (stereo not given) |  |  |  | 
 | 1.34 | CCC(C)(C)c1c2c(c(O)c3ccc(=O)oc13)CCC(C)(C)O2 | 9.25 (≈ 29.2 µM) | 9.11 (≈ 28.8 µM) | 16.3 (≈ 51.6 µM) | 8.84 (≈ 27.9 µM)
 | 11.2 | C=CC(C)(C)c1c2c(c(OC)c3ccc(=O)oc13)C(=O)CC(C)(C)O2 |  |  |  | 
 | 5.35 | CCC(C)(C)c1c2c(c(OC)c3ccc(=O)oc13)C(=O)CC(C)(C)O2 | > 20 | 13 (≈ 37.9 µM) | > 20 | > 20
Not Active |  | C=CC(C)(C)c1cc2c(OC)c3c(c(C(C)(C)C=C)c2oc1=O)OC(C)(C)C=C3 |  |  |  | 
Not Active |  | CC1(C)CC(=O)c2c(c(C(C)(C)C3CO3)c3oc(=O)ccc3c2O)O1 (stereo not given) | > 20 | 2.71 (≈ 7.87 µM) | > 20 | > 20
 | 5.5 | C=CC(C)(C)c1c2c(c(OC)c3ccc(=O)oc13)C1OC1C(C)(C)O2 (stereo not given) |  |  |  | 
Not Active |  | COc1c2c(c(C(C)(C)C3CO3)c3oc(=O)ccc13)OC(C)(C)C1OC21 (stereo not given) |  |  |  | 
 | 6.6 | CCC(C)(C)c1cc2c(OC)c3c(c(C(C)(C)CC)c2oc1=O)OC(C)(C)CC3 |  |  |  | 
Not Active |  | COc1c2c(cc3oc(=O)ccc13)OC(C)(C)CC2 |  |  |  | 
 | 1.64 | C=CC(C)(C)c1c2c(c(OC)c3ccc(=O)oc13)C=CC(C)(C)O2 [DENTATIN] | 13.3 (≈ 40.6 µM) | 14.7 (≈ 45.1 µM) | > 20 | > 20
 | 1.63 | CCC(C)(C)c1c2c(c(OC)c3ccc(=O)oc13)CCC(C)(C)O2 | 11.5 (≈ 34.9 µM) | 10.2 (≈ 30.7 µM) | > 20 | > 20
Not Active |  | COc1c2c(c(C(C)(C)C3CO3)c3oc(=O)ccc13)OC(C)(C)CC2=O (stereo not given) |  |  |  | 

SMILES | EC50 (Hepatitis B virus [1]) | EC50 (Hepatitis B virus [3]) [µM] | EC50 (KB) [µg/mL] | EC50 [2] [µg/mL] | EC50 (MCF7) [µg/mL] | EC50 (A549) [µg/mL]
C=CC(C)(C)c1cc2c(O)c3c(c(C(C)(C)C=C)c2oc1=O)OC(C)(C)C=C3 [CLAUSARIN] | Not Active |  | 1.61 (≈ 4.23 µM) | 1.59 (≈ 4.18 µM) | 7.96 (≈ 20.9 µM) | 2.98 (≈ 7.83 µM)
